Experimental data published in the supplement of paper PMC10307832.

Experiments:
Experiment in all cases: relative viability (nuclei count vs DMSO), 5 days (fraction); higher = more cells survive
[1] = compound: C[C@@H](N)c1ccc(C(=O)Nc2ccnc3[nH]ccc23)cc1 + NC(=O)Nc1cc(-c2cccc(F)c2)sc1C(=O)N[C@H]1CCCNC1 [AZD7762] (partner 0.2 µM)
Summary of the method: (§1)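 Lung cancer cell lines were pin-tool dosed in 1536-well plates on the day after seeding, with either a lone drug or a fixed anchor-drug dose plus five library-drug doses (not always all listed) in √10 steps. Nuclei were counted on 4× images after 5 days. Relative viability is the ratio of treated-well to vehicle-well nuclei counts, with each value a median of duplicate plates.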

[2] = compound: C[C@@H](N)c1ccc(C(=O)Nc2ccnc3[nH]ccc23)cc1 + Cc1nc(Nc2ncc(C(=O)Nc3c(C)cccc3Cl)s2)cc(N2CCN(CCO)CC2)n1 [Dasatinib] (partner 0.075 µM)
Summary of the method: as §1

[3] = compound: C1CNCCC1C2=CC(=NN2)C3=CC=NC=C3 + O=C(c1cc(Cc2n[nH]c(=O)c3ccccc23)ccc1F)N1CCN(C(=O)C2CC2)CC1 [Olaparib] (partner 8 µM)
Summary of the method: as §1

[4] = compound: C[C@@H](N)c1ccc(C(=O)Nc2ccnc3[nH]ccc23)cc1 + CS(=O)(=O)N1CCN(Cc2cc3nc(-c4cccc5[nH]ncc45)nc(N4CCOCC4)c3s2)CC1 [Pictilisib] (partner 1 µM)
Summary of the method: as §1

Cell Line | relative viability ([1]; first compound 0.04 µM) | relative viability ([1]; first compound 0.1265 µM) | relative viability ([1]; first compound 0.4 µM) | relative viability ([1]; first compound 1.265 µM) | relative viability ([1]; first compound 4 µM) | relative viability ([2]; first compound 0.04 µM) | relative viability ([2]; first compound 0.1265 µM) | relative viability ([2]; first compound 0.4 µM) | relative viability ([2]; first compound 4 µM) | relative viability ([3]; first compound 0.08 µM) | relative viability ([3]; first compound 0.8 µM) | relative viability ([3]; first compound 2.53 µM) | relative viability ([3]; first compound 8 µM) | relative viability ([4]; first compound 0.04 µM) | relative viability ([4]; first compound 0.1265 µM) | relative viability ([4]; first compound 0.4 µM) | relative viability ([4]; first compound 1.265 µM) | relative viability ([4]; first compound 4 µM) | relative viability ([2]; first compound 1.265 µM)
NCI-H2087 | 1.29 | 1.06 | 1.07 | 1.06 | 1.08 | 0.956 | 0.912 | 0.869 | 0.65 | 0.522 | 0.545 | 0.528 | 0.633 | 1.04 | 0.78 | 0.908 | 0.153 | 0.797 | –
NCI-H2126 | 1.01 | 1.04 | 1.17 | 0.982 | 1.12 | 0.72 | 0.664 | 0.622 | 0.619 | 0.933 | 0.875 | 0.923 | 0.939 | 0.632 | 0.494 | 0.55 | 0.349 | 0.6 | 0.626
NCI-H2170 | 0.972 | 0.935 | 1.05 | 0.827 | 0.832 | 0.774 | 0.595 | 0.639 | 0.528 | 0.606 | 0.632 | 0.626 | 0.609 | 0.337 | 0.319 | 0.295 | 0.204 | 0.266 | 0.518
NCI-H2347 | 0.825 | 0.603 | 0.973 | 0.878 | 1.01 | 0.54 | 0.314 | 0.374 | 0.574 | 0.534 | 0.514 | 0.477 | 0.571 | 0.472 | 0.667 | 0.727 | 0.832 | 0.796 | –
NCI-H2405 | – | 0.702 | 0.438 | 0.253 | 0.179 | 0.186 | 0.2 | 0.187 | 0.162 | 0.843 | 0.952 | 0.894 | 0.831 | – | 0.433 | 0.399 | 0.194 | 0.207 | 0.19
NCI-H3122 | 1.13 | 0.982 | 1.06 | 1.06 | 0.955 | 1.06 | 0.882 | 0.919 | 0.915 | 0.571 | 0.6 | 0.583 | 0.61 | 0.72 | 0.721 | 0.716 | 0.687 | 0.728 | 0.455
PC-3 [JPC-3] | 1.09 | 0.87 | 0.925 | 1.05 | 0.912 | 0.951 | 1 | 1.02 | 0.82 | 1.09 | 1.24 | 1.11 | 1.15 | 0.741 | 0.784 | 0.788 | 0.632 | 0.683 | 0.901
PC-14 | 0.251 | 0.347 | 0.364 | 0.313 | 0.469 | 0.216 | 0.29 | 0.246 | 0.131 | 0.21 | 0.273 | 0.228 | 0.279 | 0.679 | 0.699 | 0.684 | 0.665 | 0.612 | 0.206
RERF-LC-KJ | 1.08 | 1.04 | 1.33 | 1.08 | 1.18 | 0.871 | 0.911 | 0.88 | 0.709 | 0.849 | 0.873 | 0.945 | 0.954 | 0.575 | 0.541 | 0.558 | 0.585 | 0.492 | 0.778
